Key:
Settings in all cases: incubation time: 72 h
BT-474 [1] = test: drug sensitivity score (DSS), CellTiter-Blue viability (DSS (AUC-based score)); higher = stronger viability inhibition; extreme values may be limits of the assay
Experimental: (§1)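 DSRT with the CellTiter-Blue (resazurin reduction) viability readout, fluorescence 560/590 nm, 72 h incubation. Plates were normalised to DMSO and benzethonium chloride controls. DSS is computed from the area under the fitted dose-response curve (5 or 9 concentrations).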

BT-549 [2] = test: as above
Experimental: as §1

CAL-120 [3] = test: as above
Experimental: as §1

CAL-148 = test: as above
Experimental: as §1

CAL-51 [4] = test: as above
Experimental: as §1

CAL-85-1 = test: as above
Experimental: as §1

DU-4475 [5] = test: as above
Experimental: as §1

HCC1143 [6] = test: as above
Experimental: as §1

HCC1599 = test: as above
Experimental: as §1

HCC1937 [7] = test: as above
Experimental: as §1

HDQ-P1 [8] = test: as above
Experimental: as §1

Hs578T [9] = test: as above
Experimental: as §1

MDA-MB-436 = test: as above
Experimental: as §1

MDA-MB-453 [10] = test: as above
Experimental: as §1

MDA-MB-468 = test: as above
Experimental: as §1

SK-BR-3 = test: as above
Experimental: as §1

BT-474 [11] = test: drug sensitivity score (DSS), CellTox Green (DSS (AUC-based score)); higher = stronger drug effect (viability inhibition or cytotoxicity); extreme values may be limits of the assay
In short: (§2)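 Each compound occupied 5 concentrations in 10-fold steps over its own 10,000-fold range in 384-well plates, into which breast cancer cell lines were seeded as 20 µl suspension. Following 72 h of incubation, CellTox Green fluorescence (485/520 nm) was measured, and CellTiter-Glo luminescence was measured after 10 min at room temperature. Plates were individually normalised to 0.1 % DMSO and a positive kill control. From the area under the fitted dose-response curve, a drug sensitivity score was calculated.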

BT-549 [12] = test: as above
In short: as §2

CAL-120 [13] = test: as above
In short: as §2

CAL-51 [14] = test: as above
In short: as §2

DU-4475 [15] = test: as above
In short: as §2

HCC1143 [16] = test: as above
In short: as §2

HCC1937 [17] = test: as above
In short: as §2

HDQ-P1 [18] = test: as above
In short: as §2

Hs578T [19] = test: as above
In short: as §2

MDA-MB-453 [20] = test: as above
In short: as §2

Row | Structure (SMILES) | drug sensitivity score (BT-474 [1]) | drug sensitivity score (BT-549 [2]) | drug sensitivity score (CAL-120 [3]) | drug sensitivity score (CAL-148) | drug sensitivity score (CAL-51 [4]) | drug sensitivity score (CAL-85-1) | drug sensitivity score (DU-4475 [5]) | drug sensitivity score (HCC1143 [6]) | drug sensitivity score (HCC1599) | drug sensitivity score (HCC1937 [7]) | drug sensitivity score (HDQ-P1 [8]) | drug sensitivity score (Hs578T [9]) | drug sensitivity score (MDA-MB-436) | drug sensitivity score (MDA-MB-453 [10]) | drug sensitivity score (MDA-MB-468) | drug sensitivity score (SK-BR-3) | drug sensitivity score (BT-474 [11]) | drug sensitivity score (BT-549 [12]) | drug sensitivity score (CAL-120 [13]) | drug sensitivity score (CAL-51 [14]) | drug sensitivity score (DU-4475 [15]) | drug sensitivity score (HCC1143 [16]) | drug sensitivity score (HCC1937 [17]) | drug sensitivity score (HDQ-P1 [18]) | drug sensitivity score (Hs578T [19]) | drug sensitivity score (MDA-MB-453 [20])
1 | Nc1cccc2c1CN(C1CCC(=O)NC1=O)C2=O (stereo not given) [Lenalidomide] | 0 | 0 | 0 | 0 | 0 | 0 | 0 | 0 | 0 | 0 | 0 | 0 | 0 | 0 | 0 | 0 | 0 | 0 | 0 | 0 | 0 | 0 | 0 | 0 | 0 | 0
2 | C[C@]12O[C@H](C[C@]1(O)CO)n1c3ccccc3c3c4c(c5c6ccccc6n2c5c31)CNC4=O [Lestaurtinib] | 0 | 1.24 | 7.43 | 0 | 2.4 | 3.82 | 8.26 | 3.46 | 2.58 | 7.15 | 0 | 0 | 3.43 | 6.19 | 0 | 1.47 | 0.706 | 2.26 | 0 | 0 | 0 | 0 | 0 | 0 | 4.21 | 0
3 | O=C1c2c(O)ccc(O)c2C(=O)c2c(NCCNCCO)ccc(NCCNCCO)c21 [Mitoxantrone] | 6.48 | 4.76 | 9.16 | 17.4 | 17.6 | 5.25 | 22.7 | 6.5 | 4.36 | 23.1 | 8.81 | 4.05 | 3.16 | 4.9 | 9.75 | 15.3 | 0 | 0 | 0 | 3.21 | 0 | 0 | 0 | 0 | 0 | 0
4 | Nc1ccccc1NC(=O)c1ccc(CNc2nccc(-c3cccnc3)n2)cc1 [Mocetinostat] | 2.91 | 7.6 | 13.4 | 8.31 | 5.94 | 8.63 | 12.9 | 6.77 | 10.1 | 7.41 | 2.86 | 6.43 | 9.06 | 12.8 | 7.64 | 10.9 | 2.44 | 1.91 | 3.91 | 8.87 | 0 | 0.874 | 0.396 | 14.5 | 7.44 | 0
5 | COc1nc(N)nc2c1ncn2[C@@H]1O[C@H](CO)[C@@H](O)[C@@H]1O [Nelarabine] | 0 | 0 | 0 | 0 | 0 | 0 | 0 | 0 | 0 | 0 | 0 | 0 | 0 | 0 | 0 | 0 | 0 | 0.855 | 0 | 0 | 0 | 0 | 0 | 0 | 0 | 0
6 | Cc1ccc(Nc2nccc(N(C)c3ccc4c(C)n(C)nc4c3)n2)cc1S(N)(=O)=O [Pazopanib] | 0 | 3.13 | 0 | 0 | 0 | 0 | 0 | 0 | 0 | 0 | 1.38 | 0 | 4.09 | 6.67 | 0 | 0 | 0 | 0 | 0 | 0 | 0 | 1.06 | 0 | 0 | 0 | 0
7 | O=C(CCBr)N1CCN(C(=O)CCBr)CC1 [Pipobroman] | 0 | 0 | 0 | 0 | 0 | 0 | 0 | 0 | 0 | 0 | 0 | 0 | 0 | 2.49 | 0 | 0 | 0 | 0 | 0 | 0 | 0 | 1.77 | 0 | 0 | 0 | 0
8 | c1cc(CN2CCCNCCNCCCNCC2)ccc1CN1CCCNCCNCCCNCC1 [Plerixafor] | 0 | 0 | 0 | 0 | 0 | 0 | 0 | 0 | 0 | 0 | 0 | 0 | 0 | 0 | 0 | 0 | 0 | 0 | 0 | 0 | 0 | 0 | 0 | 0 | 0 | 0
9 | C[C@]12C=CC(=O)C=C1CC[C@@H]1[C@@H]2[C@@H](O)C[C@@]2(C)[C@H]1CC[C@]2(O)C(=O)CO [Prednisolone] | 0 | 0 | 0 | 0 | 0 | 0 | 0 | 0 | 0 | 0 | 0 | 0 | 0 | 4.2 | 0 | 0 | 0 | 0 | 0 | 0 | 0 | 1.2 | 0 | 0.861 | 0 | 0
10 | CC[C@@]1(O)C(=O)OCc2c1cc1n(c2=O)Cc2cc3c(CN(C)C)c(O)ccc3nc2-1 [Topotecan] | 0 | 4.7 | 8.72 | 11.5 | 5.2 | 3.4 | 11.1 | 5.56 | 3.96 | 13.2 | 0.903 | 0 | 6.23 | 3.26 | 11.6 | 11.3 | 0.158 | 0 | 3.76 | 19.5 | 0 | 0 | 3.78 | 0.486 | 0 | 0
